Measured values from patent US20220380829A1, “Method of Diagonosizing Pathogens and their Antimicrobial Susceptibility” (HANGZHOU DIAN MEDICAL LABORATORY CO., LTD., priority 2019, published 2022).

System: Candida tropicalis
Experiment: Broth microdilution (M27-A3, M27-S4), gold standard culture-based AST
Type: cell-based

OC(Cn1cncn1)(Cn1cncn1)c1ccc(F)cc1F [FLU]
Resistance profiles by broth microdilution (the gold standard) (blind-1): R | Resistance profiles by broth microdilution (the gold standard) (blind-2): S | Resistance profiles by broth microdilution (the gold standard) (blind-3): R | Resistance profiles by broth microdilution (the gold standard) (blind-4): R | Resistance profiles by broth microdilution (the gold standard) (blind-5): S | Resistance profiles by broth microdilution (the gold standard) (blind-6): S
